Source: patent publication US11858899B2, “Complexation of pirfenidone with polyphenolic calixarene or resorcin[4]arenes” (University of Cincinnati, priority 2021, dated 2024)
In brackets after ≈: the same amount, converted by molar mass. Entries after “also recorded” stand apart in the source; their conditions may differ. Where two headings read alike, the source gives them in different places.

Legend:
[1] = tested on: Staphylococcus aureus (G+ve) bacteria; assay: Zone of inhibition (ZI) paper disc test, antibacterial/antioxidant activity; assay type: cell-based; settings: for Inference: radical scavenger: from ZI change with H2O2 / pyrogallol; for Zone of inhibition (ZI), 5 uL of (Compound + H2O2): premixed 0.01M compound + 0.88M H2O2, 1:1, decrease vs pure H2O2 = antioxidant; for Zone of inhibition (ZI), 5 uL of (Compound + Pyrogallol): premixed 0.01M compound + 1M Pyrogallol, 1:1, decrease vs pure pyrogallol = antioxidant; for Zone of inhibition (ZI), 5 uL of 0.01M Compound: pure compound on paper disc, zone width around disk; for Inference: Anti-bacterial potential: from ZI of pure compound
Protocol: (§1) Tests were conducted to check the antioxidant/antibacterial activity of macrocycle and host-guest compounds. 5 uL of 0.01M compound, 5 uL (premixed, 0.01M compound+1M Pyrogallol, 1:1) and 5 uL (premixed, 0.01M compound+0.88M H2O2, 1:1) were added on paper discs placed on plates. 5 uL of 1M pyrogallol, 5 uL of 0.88M H2O2 were used as control (oxidants). In the following tables, Decrease/Increase means wrt pure H2O2 or pyrogallol. […] Zone=mm of zone width around disk.

E. Coli (G-ve) bacteria = assay: as above; assay type: cell-based; settings: for Inference: radical scavenger: from ZI change with H2O2 / pyrogallol; for Zone of inhibition (ZI), 5 uL of (Compound + H2O2): premixed 0.01M compound + 0.88M H2O2, 1:1; for Zone of inhibition (ZI), 5 uL of (Compound + Pyrogallol): premixed 0.01M compound + 1M Pyrogallol, 1:1; for Zone of inhibition (ZI), 5 uL of 0.01M Compound: pure compound on paper disc;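 as to Inference: radical scavenger: smaller zone than oxidant alone means antioxidant and larger means oxidant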
Protocol: as §1, with “disk. Decrease/Increase wrt pure H2O2 or pyrogallol.” for “disk.”

[2] = tested on: klebsiella pneumoniae (G -ve) bacteria; assay: as above; assay type: cell-based; settings: for Inference: radical scavenger: from ZI change with H2O2 / pyrogallol; for Zone of inhibition (ZI), 5 uL of (Compound + H2O2): premixed 0.01M compound + 0.88M H2O2, 1:1; for Zone of inhibition (ZI), 5 uL of (Compound + Pyrogallol): premixed 0.01M compound + 1M Pyrogallol, 1:1; for Zone of inhibition (ZI), 5 uL of 0.01M Compound: pure compound on paper disc;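 as to Inference: radical scavenger: smaller zone than oxidant alone means antioxidant and larger means oxidant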
Protocol: as §1, with “disk. Decrease/Increase wrt pure H2O2 or pyrogallol.” for “disk.”

[3] = tested on: Pseudomonas aeruginosa (G-ve) bacteria; assay: as above; assay type: cell-based; settings: for Inference: radical scavenger: from ZI change with H2O2 / pyrogallol; for Zone of inhibition (ZI), 5 uL of (Compound + H2O2): premixed 0.01M compound + 0.88M H2O2, 1:1; for Zone of inhibition (ZI), 5 uL of (Compound + Pyrogallol): premixed 0.01M compound + 1M Pyrogallol, 1:1; for Zone of inhibition (ZI), 5 uL of 0.01M Compound: pure compound on paper disc;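 as to Inference: radical scavenger: smaller zone than oxidant alone means antioxidant and larger means oxidant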
Protocol: as §1, with “disk. Decrease/Increase wrt pure H2O2 or pyrogallol.” for “disk.”

S. aureus (MU50) = assay: Broth serial dilution MIC / growth inhibition in 96-well plate; assay type: cell-based, Staphylococcus aureus; settings: for MIC: test range 128-2 ug/mL, LB medium; for GI (growth inhibition): at the MIC concentration
Protocol: (§2) 3 mg/ml stock solutions of PFD, RsC1, RsC1-PFD (1:1 complex), RsC4, and RsC4-PFD (1:1 complex) were prepared in DMSO (bcoz host soluble in DMSO solution). From the stock, a working solution 4× (highest conc. for each compound in plate) was prepared in LB media. 50 uL of LB media was first added in each well (96 well plate). Then a 4× solution of the respective compound was added to the first row (A4-A12) except A1-A3 (Positive control/bacterial innoculum). Then, the 4× was serially diluted up to well G for all 3 compounds. (A-G). Then, a 50 uL aliquot of the 100-fold diluted bacterial inoculum was added in each test well. Individual test concentrations (in triplicate wells in a 96-well plate) for the given compounds were achieved by serial dilution by using LB medium. Total volume in each well is 100 uL. The final-test concentration range for the individual test compounds for C. acnes, S. aureus and P. aeruginosa are as follows: PFD, RsC1, RsC4, RsC1-PFD complex and RsC4-PFD complex (128-2 ug/mL).

C. acnes = assay: as above; assay type: cell-based, Cutibacterium acnes; settings: for MIC: test range 128-2 ug/mL, LB medium; for GI (growth inhibition): at the MIC concentration
Protocol: 3 mg/ml stock solutions of RsC1, PFD and RsC1-PFD were prepared in DMSO (bcoz host soluble in DMSO solution). From the stock, a working solution 4× (highest conc. for each compound in plate) was prepared in LB media. 50 uL of LB media were first added in each well (96 well plate). Then a 4× solution of each respective compound was added to the first row (A4-A12) except A1-A3 (Positive control/bacterial innoculum). Then the 4× was serially diluted up to well G for all 3 compounds. (A-G). Then, a 50 uL aliquot of the 100-fold diluted bacterial inoculum was added in each test well. Individual test concentrations (in triplicate wells in a 96-well plate) for the given compounds were achieved by serial dilution by using LB medium. Total volume in each well was 100 uL. The final-test concentration range for the individual test compounds for C. acne were as follows: Macrocycle, PFD and RsC1-PFD complex (128-2 ug/mL). The results are shown in FIG. 10, which is a bar plot of absorbance (at 600 nm) at various test compound concentrations, showing the percent inhibition of pathogen growth in the presence of decreasing concentrations of the test compounds using a twofold dilution series.
as §2, with “RsC4-PFD” for “RsC1, RsC1-PFD”, “complex),” for “complex), RsC4,”, “RsC4” for “RsC4-PFD (1:1 complex)”, “acne” for “acnes, S. aureus and P. aeruginosa are”, “Macrocycle, PFD” for “PFD, RsC1, RsC4, RsC1-PFD complex”
as §2

P. aeruginosa (BAMF) = assay: as above; assay type: cell-based, Pseudomonas aeruginosa; settings: for MIC: test range 128-2 ug/mL, LB medium; for GI (growth inhibition): at the MIC concentration
Protocol: as §2

Row | Structure (SMILES) | Inference: radical scavenger [1] | Zone of inhibition (ZI), 5 uL of (Compound + H2O2) [1] | Zone of inhibition (ZI), 5 uL of (Compound + Pyrogallol) [1] | Zone of inhibition (ZI), 5 uL of 0.01M Compound [1] | Inference: radical scavenger (E. Coli (G-ve) bacteria) | Zone of inhibition (ZI), 5 uL of (Compound + H2O2) (E. Coli (G-ve) bacteria) | Zone of inhibition (ZI), 5 uL of (Compound + Pyrogallol) (E. Coli (G-ve) bacteria) | Zone of inhibition (ZI), 5 uL of 0.01M Compound (E. Coli (G-ve) bacteria) | Inference: radical scavenger [2] | Zone of inhibition (ZI), 5 uL of (Compound + H2O2) [2] | Zone of inhibition (ZI), 5 uL of (Compound + Pyrogallol) [2] | Zone of inhibition (ZI), 5 uL of 0.01M Compound [2] | Inference: radical scavenger [3] | Zone of inhibition (ZI), 5 uL of (Compound + H2O2) [3] | Zone of inhibition (ZI), 5 uL of (Compound + Pyrogallol) [3] | Zone of inhibition (ZI), 5 uL of 0.01M Compound [3] | GI (growth inhibition) (S. aureus (MU50)) [%] | GI (growth inhibition) (C. acnes) [%] | GI (growth inhibition) (P. aeruginosa (BAMF)) [%] | other results
1 | CCCCCCC1c2cc(c(O)c(O)c2O)C(CCCCCC)c2cc(c(O)c(O)c2O)C(CCCCCC)c2cc(c(O)c(O)c2O)C(CCCCCC)c2cc1c(O)c(O)c2O (stereo not shown) [P6] | Low radical | (3.8 mm) | (2 mm) | No ZI | Moderate | (1.7 mm) | No ZI | No ZI | Moderate | (2 mm) | No ZI | No ZI | Low radical | (2.2 mm) | pyrogallol (1.2 mm | No ZI |  |  |  | 
2 | OCCN1CCN(Cc2ccc(O)c3ncccc23)CC1 [VK] | Low radical | (3.7 mm) | (2.3 mm) | No ZI | High radical | No ZI | No ZI | No ZI | Moderate | (2.3 mm) | No ZI | No ZI | Moderate | (2.2 mm) | (0.7 mm) | No ZI |  |  |  | 
3 | Cc1ccc(=O)n(-c2ccccc2)c1 [PFD, 5-methyl-1-phenylpyridin-2-one] | low to high free radical scavenging effect; also recorded: Moderate | slightly (3.8 mm | No ZI | No ZI | Moderate OH | (1.7 mm) | No ZI | No ZI | Moderate | (2.2 mm) | No ZI | No ZI | no free radical scavenging effect | (2.7 mm) | pyrogallol (1.2 mm | No ZI | 45 | 98 | 35 | MIC (S. aureus (MU50); Staphylococcus aureus, read-out: MIC): 128 µg/mL (≈ 691 µM); MIC (C. acnes; Cutibacterium acnes, read-out: MIC): 128 µg/mL (≈ 691 µM); MIC (P. aeruginosa (BAMF); Pseudomonas aeruginosa, read-out: MIC): 128 µg/mL (≈ 691 µM)
4 | OO [H2O2] |  |  |  |  |  |  |  |  |  |  |  |  |  |  |  |  |  |  |  | Zone of inhibition (ZI), 5 uL of 0.88M H2O2 ([1]; oxidant control alone): (4.6 mm); Zone of inhibition (ZI), 5 uL of 0.88M H2O2 (E. Coli (G-ve) bacteria; oxidant control alone): ZI (2.9 mm; Zone of inhibition (ZI), 5 uL of 0.88M H2O2 ([2]; oxidant control alone): ZI (3 mm; Zone of inhibition (ZI), 5 uL of 0.88M H2O2 ([3]; oxidant control alone): ZI (2.7 mm
5 | Oc1cccc(O)c1O [pyrogallol, Pyrogallol] |  |  |  |  |  |  |  |  |  |  |  |  |  |  |  |  |  |  |  | Zone of inhibition (ZI), 5 uL of 1M pyrogallol ([1]; oxidant control alone): (3.3 mm); Zone of inhibition (ZI), 5 uL of 1M pyrogallol (E. Coli (G-ve) bacteria; oxidant control alone): ZI (0.9 mm; Zone of inhibition (ZI), 5 uL of 1M pyrogallol ([2]; oxidant control alone): ZI (0.9 mm; Zone of inhibition (ZI), 5 uL of 1M pyrogallol ([3]; oxidant control alone): ZI (1.1 mm
6 | CC1c2cc(c(O)cc2O)C(C)c2cc(c(O)cc2O)C(C)c2cc(c(O)cc2O)C(C)c2cc1c(O)cc2O (stereo not shown) [RsC1, C-methylresorcin[4]arene] | potential/Low | (4.2 mm) | (2.5 mm) | (1.2 mm) | Moderate | (1.9 mm) | No ZI | No ZI | Moderate | (2.4 mm) | No ZI | No ZI |  | (2.1 mm) | pyrogallol (1.2 mm | No ZI | 98 | 96 | 47 | MIC (S. aureus (MU50)): 16 µg/mL (≈ 29.4 µM); percent inhibition of pathogen growth (C. acnes; at 16 μg/mL, absorbance at 600 nm (FIG. 10)): 35%; MIC (C. acnes): 64 µg/mL (≈ 118 µM); MIC (P. aeruginosa (BAMF)): 64 µg/mL (≈ 118 µM); Inference: Anti-bacterial potential ([1]; listed as R1): slight anti-bacterial activity; Inference: radical scavenger ([3]; listed as R1): low antioxidant activity; also recorded: Low radical
7 | CCCCC1c2cc(c(O)cc2O)C(CCCC)c2cc(c(O)cc2O)C(CCCC)c2cc(c(O)cc2O)C(CCCC)c2cc1c(O)cc2O (stereo not shown) [RsC4, C-butylresorcin[4]arene] | Low radical | (3.6 mm) | (2.3 mm) | No ZI | Moderate | (1.7 mm) | No ZI | No ZI | High OH | No ZI | No ZI | No ZI | Low radical | (2.1 mm) | (1.4 mm) | No ZI | 52 | 98 | 56 | MIC (S. aureus (MU50)): 128 µg/mL (≈ 180 µM); MIC (C. acnes): 128 µg/mL (≈ 180 µM); MIC (P. aeruginosa (BAMF)): 64 µg/mL (≈ 89.8 µM); Inference: Anti-bacterial potential [1]: none
